The Papp is a coefficient for how fast a substance crosses the barrier. A lower Papp goes with poor permeation. As a reminder, the Papp A→B is the apparent permeability from the apical to the basolateral side of a cell layer. Low readings indicate slow passage, high ones fast passage.

Data set [1] in a line: in vitro. The note with it: for Papp at 5 h, 10 µM: PAMPA, pH 7.4, Papp ± SD (PAMPA). From the text:
The permeability of OT and its prodrugs was estimated by the PAMPA test (Corning, Gentest PAMPA Plate System). The PAMPA method is a common method for the permeability evaluation of early drug candidates. Although this system lacks transporters, paracellular pathway enzymes, and other cell-associated processes, it measures passive diffusion, the primary mechanism by which drugs traverse biological barriers. Consequently, due to its low cost, high throughput, and relative handling ease, it serves as screening tool for predicting drugs absorption potential. The PAMPA reflects the passive transport through biological membranes, and its results are reported to correlate with those obtained from the Caco-2 cell model.
A Gentest Pre-coated PAMPA Plate System was purchased from Corning® (Tewksbury, MA, USA). The assay was performed according to the provider instructions, following Caco-2 convention, where the top well is a donor well. The 10 µM solutions of OT, prodrugs, and permeability markers were prepared in PBS buffer, pH 7.4, from 1 mM stock solutions in dimethyl sulfoxide (DMSO). A total of 300 µL per well of tested compounds was added to the donor, filter plate, which, after distribution of all samples, was coupled with acceptor plate filed with 200 µL of phosphate-buffered saline (PBS) per well. All compounds were measured in triplicate. After 5 h of incubation at 25 °C, 200 µL samples were collected from acceptor and donor wells and analyzed using UHPLC-MS to determine concentrations of compounds.
On the technique in general: PAMPA measures passive passage across an artificial lipid membrane.

Data set [2] concerns Caco-2 cell monolayer. Description: Caco-2 monolayer integrity by TEER before and after treatment. The note with it: 100 µg/mL, 2 h treatment. The class given is cell-based, human. As to the method:
This assessment was performed using a dose (100 µg/mL) and treatment time (2 h) similar to those applied in the intestinal transport analysis.
Caco-2 cells were cultured at 37 °C under a 5% CO2 atmosphere using Dulbecco’s Modified Eagle’s Medium (DMEM), supplemented with 20% (v/v) fetal bovine serum, non-essential amino acids 100×, and gentamycin (50 mg/mL). […] The culture medium was replaced every 2 days.

Data set [3] can be described thus: in vitro. The note with it: human, Caco-2. As to the method:
(§1) The transport of OT and its derivatives (Oct-OT, Hoc-OT, Dec-OT, Dod-OT) selected for further in vitro studies was evaluated at a target concentration of approximately 100 µg/mL. Intestinal transport was initiated by adding the tested compounds to the apical compartment for absorptive transport determination. The solutions from the acceptor compartments were sampled at 20-minute intervals to analyze the concentration of transported compounds.
(§2) The Caco-2 cell line (ATCC HTB-37), derived from human colon adenocarcinoma, was obtained from the American Type Culture Collection (ATCC, Manassas, VA, USA). Caco-2 cells were cultured at 37 °C under a 5% CO2 atmosphere using Dulbecco’s Modified Eagle’s Medium (DMEM), supplemented with 20% (v/v) fetal bovine serum, non-essential amino acids 100×, and gentamycin (50 mg/mL). For experiments, the Caco-2 cells were plated at a density of 4 × 10^5 cells per cm^2 on polyethylene terephthalate (PET) capillary pore membranes with a pore size of 0.4 μm and a growth surface area of 1.13 cm^2 (Greiner PET hanging). The culture medium was replaced every 2 days. All experiments were performed on differentiated Caco-2 cell monolayers 21 days post-seeding. To check the integrity of the Caco-2 monolayer, transepithelial electrical resistance (TEER) was measured by employing the Millicell Electrical Resistance System (Millipore, Bedford, MA, USA). Moreover, fluorescein-5(6)-sulfonic acid was used as a transport marker, added to the apical side of the Caco-2 cultures at 200 μg/mL concentration. Fluoresceinated sulfonic acid, with a molecular weight of 478 Da, is a hydrophilic, charged molecule at physiological pH and is considered cell impermeable. Unless specified otherwise, all chemicals were purchased from Merck KGaA (Darmstadt, Germany).
(§3) The analyzed compounds at non-cytotoxic concentration of approximately 100 μg/mL were prepared in Hank’s balanced salt solution (HBSS), which was adapted as a transport medium. […] Before the experiments, the Caco-2 monolayers were washed twice with HBSS and pre-incubated at 37 °C for 30 min. Transport was initiated by adding HBSS to the acceptor (basolateral) side and the analyzed compound to the donor (apical) side, which mimicked absorptive intestinal transport. The Caco-2 cell cultures were placed in the incubator (37 °C) and continuously agitated using a plate shaker (120 rpm). At 20 min intervals, a sample was taken from the acceptor compartment, and HPLC analyzed the concentration of the transported compound. Each sample volume was replaced with fresh HBSS warmed to 37 °C. To quantify the transport of compound across the Caco-2 cell monolayer, the apparent permeability coefficient (Papp) was determined according to the protocol previously described by Tavelin et al.. […]

The subject of data set [4] is Caco-2 cell monolayer. Description: in vitro. As to the method: as §1, §2, §3
The conditions of data set [5]: cited from earlier work.

`CCCCOC(=O)N[C@H]1CSSC[C@@H](C(=O)N2CCC[C@H]2C(=O)N[C@@H](CC(C)C)C(=O)NCC(N)=O)NC(=O)[C@H](CC(N)=O)NC(=O)[C@H](CCC(N)=O)NC(=O)[C@H]([C@@H](C)CC)NC(=O)[C@H](Cc2ccc(O)cc2)NC1=O` [But-OT, But-Cys(&)-Tyr-Ile-Gln-Asn-Cys(&)-Pro-Leu-Gly-NH2] yielded a Papp at 5 h, 10 µM in data set [1] of 2.2 ± 0.3 ×10⁻⁶ cm/s.

On to `Cn1c(=O)c2c(ncn2C)n(C)c1=O` [Caffeine, reference compound], for which the “Mass Retention (PAMPA)” value in data set [1] (5 h, 10 µM, pH 7.4) is 26%. In data set [1], this compound returned a Papp at 5 h, 10 µM of 22 ± 11.2 ×10⁻⁶ cm/s.

As for `CCCCCCCCCCOC(=O)N[C@H]1CSSC[C@@H](C(=O)N2CCC[C@H]2C(=O)N[C@@H](CC(C)C)C(=O)NCC(N)=O)NC(=O)[C@H](CC(N)=O)NC(=O)[C@H](CCC(N)=O)NC(=O)[C@H]([C@@H](C)CC)NC(=O)[C@H](Cc2ccc(O)cc2)NC1=O` [Dec-OT, Dec-Cys(&)-Tyr-Ile-Gln-Asn-Cys(&)-Pro-Leu-Gly-NH2], in data set [1], the “PAMPA permeability (in words)” value is reported as “significantly better permeability” and the Papp at 5 h, 10 µM worked out at 9.28 ± 6.11 ×10⁻⁶ cm/s. The “Caco-2 monolayer integrity (TEER before and after treatment)” value (shortened to “Caco-2 monolayer integrity”) in data set [2] was “stable and high monolayer integrity”.

On to `CCCCCCCCCCCCOC(=O)N[C@H]1CSSC[C@@H](C(=O)N2CCC[C@H]2C(=O)N[C@@H](CC(C)C)C(=O)NCC(N)=O)NC(=O)[C@H](CC(N)=O)NC(=O)[C@H](CCC(N)=O)NC(=O)[C@H]([C@@H](C)CC)NC(=O)[C@H](Cc2ccc(O)cc2)NC1=O` [Dod-OT, Dod-Cys(&)-Tyr-Ile-Gln-Asn-Cys(&)-Pro-Leu-Gly-NH2], for which, in data set [1], the “PAMPA permeability (in words)” value is given as “poor permeability” and the Papp at 5 h, 10 µM was determined as 1.08 ± 0.95 ×10⁻⁶ cm/s. Moreover, the “Caco-2 monolayer integrity” value in data set [2] was “stable and high monolayer integrity”.

In the case of `CCOC(=O)N[C@H]1CSSC[C@@H](C(=O)N2CCC[C@H]2C(=O)N[C@@H](CC(C)C)C(=O)NCC(N)=O)NC(=O)[C@H](CC(N)=O)NC(=O)[C@H](CCC(N)=O)NC(=O)[C@H]([C@@H](C)CC)NC(=O)[C@H](Cc2ccc(O)cc2)NC1=O` [Et-OT, Et-Cys(&)-Tyr-Ile-Gln-Asn-Cys(&)-Pro-Leu-Gly-NH2], in data set [1], the Papp at 5 h, 10 µM was found to be 2.78 ± 0.17 ×10⁻⁶ cm/s.

`CCCCCCOC(=O)N[C@H]1CSSC[C@@H](C(=O)N2CCC[C@H]2C(=O)N[C@@H](CC(C)C)C(=O)NCC(N)=O)NC(=O)[C@H](CC(N)=O)NC(=O)[C@H](CCC(N)=O)NC(=O)[C@H]([C@@H](C)CC)NC(=O)[C@H](Cc2ccc(O)cc2)NC1=O` [Hoc-OT, Hoc-Cys(&)-Tyr-Ile-Gln-Asn-Cys(&)-Pro-Leu-Gly-NH2]: in data set [1], the “PAMPA permeability (in words)” value is “significantly better permeability” and the Papp at 5 h, 10 µM stood at 4.67 ± 0.66 ×10⁻⁶ cm/s. The Papp A→B in data set [3] stood at 1.99 ± 0.33 ×10⁻⁶ cm/s. Also, the “Caco-2 permeability compared to OT (in words)” value in data set [4] is recorded as “lower permeability than OT”. Moreover, the “Caco-2 monolayer integrity” value in data set [2] is “stable and high monolayer integrity”.

Turning to `CC[C@H](C)[C@@H]1NC(=O)[C@H](Cc2ccc(O)cc2)NC(=O)[C@@H](NC(=O)OCCOC)CSSC[C@@H](C(=O)N2CCC[C@H]2C(=O)N[C@@H](CC(C)C)C(=O)NCC(N)=O)NC(=O)[C@H](CC(N)=O)NC(=O)[C@H](CCC(N)=O)NC1=O` [MeOEt-OT, MeOEt-Cys(&)-Tyr-Ile-Gln-Asn-Cys(&)-Pro-Leu-Gly-NH2], the Papp at 5 h, 10 µM in data set [1] is 2.37 ± 0.52 ×10⁻⁶ cm/s.

Compound `CC[C@H](C)[C@@H]1NC(=O)[C@H](Cc2ccc(O)cc2)NC(=O)[C@@H](N)CSSC[C@@H](C(=O)N2CCC[C@H]2C(=O)N[C@@H](CC(C)C)C(=O)NCC(N)=O)NC(=O)[C@H](CC(N)=O)NC(=O)[C@H](CCC(N)=O)NC1=O` [OT, Cys(&)-Tyr-Ile-Gln-Asn-Cys(&)-Pro-Leu-Gly-NH2, reference compound] came in with a Papp at 5 h, 10 µM in data set [1] of 2.2 ×10⁻⁶ cm/s. The same compound yielded a Papp A→B in data set [3] of 7.74 ± 0.53 ×10⁻⁶ cm/s. In addition, the “Caco-2 monolayer integrity” value in data set [2] was “stable and high monolayer integrity”. Besides, the “Time to peak levels after intranasal administration” value in data set [5] is 15 to 30 min.

Regarding `CCCCCCCCOC(=O)N[C@H]1CSSC[C@@H](C(=O)N2CCC[C@H]2C(=O)N[C@@H](CC(C)C)C(=O)NCC(N)=O)NC(=O)[C@H](CC(N)=O)NC(=O)[C@H](CCC(N)=O)NC(=O)[C@H]([C@@H](C)CC)NC(=O)[C@H](Cc2ccc(O)cc2)NC1=O` [Oct-OT, Oct-Cys(&)-Tyr-Ile-Gln-Asn-Cys(&)-Pro-Leu-Gly-NH2], in data set [1], the “PAMPA permeability (in words)” value is given as “significantly better permeability” and the Papp at 5 h, 10 µM came to 5.93 ± 0.86 ×10⁻⁶ cm/s. The Papp A→B in data set [3] came out at 14 ± 2.27 ×10⁻⁶ cm/s. Moreover, in data set [2], the “Caco-2 monolayer integrity” value was “stable and high monolayer integrity”.

In turn, `CCCOC(=O)N[C@H]1CSSC[C@@H](C(=O)N2CCC[C@H]2C(=O)N[C@@H](CC(C)C)C(=O)NCC(N)=O)NC(=O)[C@H](CC(N)=O)NC(=O)[C@H](CCC(N)=O)NC(=O)[C@H]([C@@H](C)CC)NC(=O)[C@H](Cc2ccc(O)cc2)NC1=O` [Prop-OT, Prop-Cys(&)-Tyr-Ile-Gln-Asn-Cys(&)-Pro-Leu-Gly-NH2] came in with a Papp at 5 h, 10 µM in data set [1] of 2.97 ± 0.64 ×10⁻⁶ cm/s.

Values taken from publication PMC12112033, “Application of Lipophilic Prodrug Charge Masking Strategy to Obtain Novel, Potential Oxytocin Prodrugs” (International Journal of Molecular Sciences, 2025).
